The source of these data is US20130079749A1, “Modular Drug Delivery System for Minimizing Trauma During and After Insertion of a Cochlear Lead” (ADVANCED BIONICS, LLC, priority 2007, published 2013).

A short description of series [1]: In-vivo comparison of DXMb and DEX salt delivered over a week. The procedure: In one study performed by the Applicants, a comparison of DXMb and DEX salt was performed in an in-vivo model over the prior of a week. […] This surprising potency allows for increased therapeutic effects without increasing the volume of the drug or the size of the intracochlear lead.

In another series the test system is auditory hair cells. In words: Organ of Corti photomicrographs thirty days after electrode insertion trauma. It is filed as in vivo, guinea pig. The conditions noted are these: lower middle turn of cochlea, thirty days after EIT, FIG. 11 microphotograph D. An excerpt: The efficacy of DXMb was also studied by the Applicants in relationship to preserving residual hearing and internal nerve structures within the cochlea. In the study performed by the Applicants, 88 ears of 44 pigmented guinea pigs of 250 to 300 grams were randomly assigned to one of four groups as follows: group 1 corresponded to the contralateral, unoperated ears from groups 2 to 4 animals (n=44). Group 2 (n=15): electrode insertion trauma (EIT); these ears underwent EIT only via a cochleostomy and then immediate closure. Group 3 (n=15): EIT+artificial perilymph (EIT+AP) treated ears received EIT and immediately after trauma, insertion of a microcatheter into the cochleostomy site with AP perfused into the scala tympani (ST) for a period of 8 days. Group 4 (n=14): EIT dexamethasone base (EIT=DXMb) treated animals underwent EIT followed immediately by insertion of a microcatheter into the cochleostomy with ST perfusion of DXMb ([…]) in AP for a period of 8 days. Hearing measurements were performed before surgery, as well as on post-EIT days 0, 3, 7, 14, and 30. Tone bursts of 0.5, 1, 4, and 16 kHz were delivered to the ear at a rate of 29 Hz. The intensity of the stimulation was decreased by 10 dB sound pressure level (SPL) decrements until no auditory brainstem response was identified.
The organization of hair cells is in three distinct rows. […]

Series [2] in a line: Solubility of dexamethasone forms. It is filed as physicochemical.

Structures are written as SMILES.

For `C[C@@H]1C[C@H]2[C@@H]3CCC4=CC(=O)C=C[C@]4(C)[C@@]3(F)[C@@H](O)C[C@]2(C)[C@@]1(O)C(=O)CO` [DXMb, dexamethasone base], the “effectiveness compared with DEX salt” value in series [1] (DXMb 1 μL/hr at 70 μL/ml vs DEX salt 100 μL/ml at 1 μL/hr, in-vivo model, one week) is on record as “just as effective”. Further, the “potency compared with salt forms of dexamethasone” value in series [1] (administered into the intracochlear space after implantation surgeries) was “surprisingly more potent than salt forms of dexamethasone”. Moreover, the “hair cells and hair cell structure” value in the series with auditory hair cells is “substantially similar to that of the control group”. In addition, in series [2] (aqueous preparations), the “solubility in aqueous preparations” value is listed as “limited solubility in aqueous preparations”. In addition, in series [2] (organic solvents), the “solubility in organic solvents” value is given as “highly soluble in organic solvents”.
